From patent US20250388589A1, “TRICYCLIC HETEROCYCLIC DERIVATIVES, COMPOSITIONS AND USES THEREOF” (Danatlas Pharmaceuticals Co., Ltd., priority 2022, published 2025) come the findings set out here.

In assay [1] the target is hPARG (C-terminal His6-tag) (Homo sapiens (Human), UniProt Q86W56). Kind of assay: PARG Enzymatic Activity Assay (HTRF). To be noted: hPARG 65 pM final, biotinylated-NAD ribosylated PARP1 8 nM final. The class given is biochemical. As for the experimental part: PARG Enzymatic Activity Assay HTRF assay was used to measure the ability of compounds to inhibit the activity of PARG in vitro. C-terminal His6-tag PARG expressed in E. coli was purified and stored at −80° C. in aliquots. Assay measurements were performed with 1×buffer comprising 50 mM Tris pH 7.4, 0.1 mg/mL BSA, 3 mM EDTA, 0.4 mM EGTA, 1 mM DTT, 50 mM KCl and 0.01% Tween 20.
hPARG (C-terminal His6-tag), sequence (Q86W56 whole entry): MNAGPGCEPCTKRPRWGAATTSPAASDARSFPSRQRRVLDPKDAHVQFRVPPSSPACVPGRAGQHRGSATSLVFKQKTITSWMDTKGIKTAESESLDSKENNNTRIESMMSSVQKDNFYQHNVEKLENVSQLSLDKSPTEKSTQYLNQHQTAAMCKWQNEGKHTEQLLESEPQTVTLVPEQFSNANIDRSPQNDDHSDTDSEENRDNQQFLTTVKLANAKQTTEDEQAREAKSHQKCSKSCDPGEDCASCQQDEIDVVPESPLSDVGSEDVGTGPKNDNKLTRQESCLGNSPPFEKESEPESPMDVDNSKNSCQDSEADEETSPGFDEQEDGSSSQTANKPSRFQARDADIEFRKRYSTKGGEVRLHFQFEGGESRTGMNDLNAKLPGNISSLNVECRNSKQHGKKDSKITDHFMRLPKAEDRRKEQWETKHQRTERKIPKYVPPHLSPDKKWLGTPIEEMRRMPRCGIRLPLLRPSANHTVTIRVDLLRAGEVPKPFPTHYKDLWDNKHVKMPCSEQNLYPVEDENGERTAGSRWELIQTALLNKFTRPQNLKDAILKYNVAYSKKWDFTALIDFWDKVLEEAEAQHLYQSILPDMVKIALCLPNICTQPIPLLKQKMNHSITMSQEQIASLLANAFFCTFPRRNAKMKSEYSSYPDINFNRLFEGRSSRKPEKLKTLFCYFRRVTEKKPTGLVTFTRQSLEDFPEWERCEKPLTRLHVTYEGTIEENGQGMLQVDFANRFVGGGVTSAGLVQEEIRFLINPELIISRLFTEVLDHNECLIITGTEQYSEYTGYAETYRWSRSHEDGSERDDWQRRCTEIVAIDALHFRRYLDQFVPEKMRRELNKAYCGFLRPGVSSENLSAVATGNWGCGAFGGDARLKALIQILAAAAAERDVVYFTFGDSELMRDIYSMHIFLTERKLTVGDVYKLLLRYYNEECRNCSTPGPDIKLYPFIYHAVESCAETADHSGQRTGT
Compounds dissolved in DMSO were plated into a 384-well assay plate (PerkinElmer, Catalog #: 6008280) in duplicate using a dispenser (Labcyte, Echo 665), and tested on a 10-point 4-fold serial dilution. Add 5 L Enzyme mix [hPARG (C-terminal His6-tag, 4.2 μM), 65 pM final] to the test wells. The plates were covered and left to incubate for 60 minutes at RT before the addition of 5 L substrate mix [biotinylated-NAD ribosylated PARP1 (6.1 μM), 8 nM final] to initiate reaction. After incubating 10 minutes at RT, add 2.5 L Streptavidin-Eu cryptate (Cisbio, Catalog #: 610SAKLA) and 2.5 L Mab anti 6HIS-XL665 (Cisbio, Catalog #: 61HISXLA) to the plate, and incubate for 60 minutes at RT. Read on a multimode plate reader (PerkinElmer, Envision 2015) in time-resolved fluorescence (TRF) mode, with excitation at 337 nm and emission at both 620 nm and 665 nm. Average HTRF signal of high control (Wells with 1% DMSO) was calculated and as Vehicle Control (VC). Average HTRF signal of low control (no Enzyme) was calculated and as Positive control (PC).
(§1) IC50 values were determined by fitting the data to the standard 4 parameters with Hill Slope using GraphPad Prism software.

In assay [2] the test system is Kuramochi cell line. Kind of assay: Cell Viability Assay (Cell Titer-Glo, 7 days). The assay is classed as cell-based. To be noted: Kuramochi cells, 7 days incubation, read-out: PARG Cell viability (IC50). As for the experimental part:
Cell viability studies were conducted in Kuramochi cell line. Cells were maintained in RPMI (Hyclone, Catalog #: SH3080901B) supplemented with 10% v/v FBS (AusGeneX, Catalog #: FBS500-S), 1% v/v Penicillin Streptomycin (Gibco, Catalog #: 15140122). Cells were seeded in 96-well plates (PerkinElmer, Catalog #: 6005680) at a density of 400 cells/well. Compounds dissolved in DMSO were plated in duplicate using a multichannel pipette, and tested on a 9-point 3-fold serial dilution. Cells were incubated for 7 days in a 37° C. active humidified incubator at 5% CO2. Cell viability was measured using the Cell Titer-Glo reagent (Promega, Catalog #: G7573) as manufacturer's instructions. Luminescence signal was measured with a multimode plate reader (Perkin Elmer, Envision 2105 or BMG, ClarioStar Plus). Average values of DMSO treated wells in a plate was calculated and as high control (HC). Average values of only medium in a plate was calculated and as low control (LC)
as §1

Read-outs that look alike come from different tables or passages of the source.

For `N#CC1(NS(=O)(=O)c2ccc3c4c(C5=CCC(O)CC5)ncnc4n(-c4nnc(C(F)F)s4)c3c2)CC1` (stereo not shown) [Example 84, N-(1-Cyanocyclopropyl)-9-(5-(difluoromethyl)-1,3,4-thiadiazol-2-yl)-4-(4-hydroxycyclohex-1-en-1-yl)-9H-pyrimido[4,5-b]indole-7-sulfonamide], the IC50 in assay [1] and in assay [2] (168 h) was less than 100 nM in each case.

In the case of `N#CC1(NS(=O)(=O)c2ccc3c4c(C5CCN(C(=O)N6CC[C@@H](O)C6)CC5)ncnc4n(-c4nnc(C(F)F)s4)c3c2)CC1` [Example 129, (R)—N-(1-Cyanocyclopropyl)-9-(5-(difluoromethyl)-1,3,4-thiadiazol-2-yl)-4-(1-(3-hydroxypyrrolidine-1-carbonyl)piperidin-4-yl)-9H-pyrimido[4,5-b]indole-7-sulfonamide], the results for the IC50 in assay [1] and in assay [2] (168 h) were less than 100 nM and 100 to 1000 nM, respectively.

Turning to `CC(C)C(=O)N1C[C@H](C)N(c2ncnc3c2c2ccc(S(=O)(=O)NC4(C#N)CC4)cc2n3-c2nnc(C(F)F)s2)C[C@@H]1C` [Example 57, N-(1-cyanocyclopropyl)-9-(5-(difluoromethyl)-1,3,4-thiadiazol-2-yl)-4-((2S,5S)-4-isobutyryl-2,5-dimethylpiperazin-1-yl)-9H-pyrimido[4,5-b]indole-7-sulfonamide], the IC50 in assay [1] and in assay [2] (168 h) was 100 to 1000 nM each time.

As to `C[C@@H]1CN(c2ncnc3c2c2ccc(S(=O)(=O)NC4(C#N)CC4)cc2n3-c2nnc(C(F)F)s2)CCN1C(=O)C1CCC1` [Example 5, (R)-N-(1-Cyanocyclopropyl)-4-(4-(cyclobutanecarbonyl)-3-methylpiperazin-1-yl)-9-(5-(difluoromethyl)-1,3,4-thiadiazol-2-yl)-9H-pyrimido[4,5-b]indole-7-sulfonamide], the figures for the IC50 in assay [1] and in assay [2] (168 h) were less than 100 nM and 100 to 1000 nM, respectively.

Regarding `CC1(NS(=O)(=O)c2ccc3c4c(C5CCN(C(=O)N6CCOCC6)CC5)ncnc4n(-c4nnc(C(F)F)s4)c3c2)CC1` [Example 133, 9-(5-(difluoromethyl)-1,3,4-thiadiazol-2-yl)-N-(1-methylcyclopropyl)-4-(1-(morpholine-4-carbonyl)piperidin-4-yl)-9H-pyrimido[4,5-b]indole-7-sulfonamide], the IC50 in assay [1] and in assay [2] (168 h) was less than 100 nM each time.

`C[C@@H]1CN(C(=O)N(C)C)[C@@H](C)CN1c1ncnc2c1c1ccc(S(=O)(=O)NC3(C)CC3)cc1n2-c1nnc(C(F)F)s1` [Example 100, (2S,5R)-4-(9-(5-(difluoromethyl)-1,3,4-thiadiazol-2-yl)-7-(N-(1-methylcyclopropyl)sulfamoyl)-9H-pyrimido[4,5-b]indol-4-yl)-N,N,2,5-tetramethylpiperazine-1-carboxamide]: the IC50 in assay [1] and in assay [2] (168 h) was less than 100 nM throughout.

On to `CC(C)C(=O)N1CCC(c2ncnc3c2c2ccc(S(=O)(=O)NC4(C#N)CC4)cc2n3-c2nnc(C(F)F)s2)C[C@@H]1C` (stereo partly drawn) [Example 151, N-(1-Cyanocyclopropyl)-9-(5-(difluoromethyl)-1,3,4-thiadiazol-2-yl)-4-((2S)-1-isobutyryl-2-methylpiperidin-4-yl)-9H-pyrimido[4,5-b]indole-7-sulfonamide], for which the IC50 in assay [1] and in assay [2] (168 h) was less than 100 nM each time.

`CC1(C(=O)N2CC3CN(c4ncnc5c4c4ccc(S(=O)(=O)NC6(C#N)CC6)cc4n5-c4nnc(C(F)F)s4)CC3C2)CC1` (stereo not shown) [Example 36, N-(1-Cyanocyclopropyl)-9-(5-(difluoromethyl)-1,3,4-thiadiazol-2-yl)-4-(5-(1-methylcyclopropane-1-carbonyl)hexahydropyrrolo[3,4-c]pyrrol-2(1H)-yl)-9H-pyrimido[4,5-b]indole-7-sulfonamide]: the IC50 in assay [1] was less than 100 nM; in assay [2] (168 h) it was 100 to 1000 nM.

As to `CN(C)C(=O)N1CCC(c2ncnc3c2c2cc(F)c(S(=O)(=O)NC4(C#N)CC4)cc2n3-c2nnc(C(F)F)s2)CC1` [Example 89, 4-(7-(N-(1-Cyanocyclopropyl)sulfamoyl)-9-(5-(difluoromethyl)-1,3,4-thiadiazol-2-yl)-6-fluoro-9H-pyrimido[4,5-b]indol-4-yl)-N,N-dimethylpiperidine-1-carboxamide], the IC50 in assay [1] and in assay [2] (168 h) was less than 100 nM each time.

With `C[C@H]1CC(c2ncnc3c2c2cc(F)c(S(=O)(=O)NC4(C)CC4)cc2n3-c2nnc(C(F)F)s2)CCN1C(=O)N(C)C` (stereo partly drawn) [Example 149, (2S)-4-(9-(5-(difluoromethyl)-1,3,4-thiadiazol-2-yl)-6-fluoro-7-(N-(1-methylcyclopropyl)sulfamoyl)-9H-pyrimido[4,5-b]indol-4-yl)-N,N,2-trimethylpiperidine-1-carboxamide], the half-inhibitory concentration (IC50) in assay [1] and in assay [2] was less than 100 nM each time.

In the case of `N#CC1(NS(=O)(=O)c2ccc3c4c(N5CCN(C(=O)C6CC6)CC5)ncnc4n(-c4nnc(C(F)F)s4)c3c2)CC1` [Example 2, N-(1-Cyanocyclopropyl)-4-(4-(cyclopropanecarbonyl)piperazin-1-yl)-9-(5-(difluoromethyl)-1,3,4-thiadiazol-2-yl)-9H-pyrimido[4,5-b]indole-7-sulfonamide], the half-inhibitory concentration (IC50) in assay [1] and in assay [2] (168 h) was less than 100 nM each time.

As for `N#CC1(NS(=O)(=O)c2ccc3c4c(C5CCN(C(=O)[C@H]6CCOC6)CC5)ncnc4n(-c4nnc(C(F)F)s4)c3c2)CC1` [Example 115, (S)-N-(1-cyanocyclopropyl)-9-(5-(difluoromethyl)-1,3,4-thiadiazol-2-yl)-4-(1-(tetrahydrofuran-3-carbonyl)piperidin-4-yl)-9H-pyrimido[4,5-b]indole-7-sulfonamide], the IC50 in assay [1] and in assay [2] (168 h) was less than 100 nM in each case.

Consider `CC(C)(C)OC(=O)N1CCC(c2ncnc3c2c2ccc(S(=O)(=O)NC4(C#N)CC4)cc2n3-c2nnc(C(F)F)s2)CC1` [Example 86, tert-butyl 4-(7-(N-(1-cyanocyclopropyl)sulfamoyl)-9-(5-(difluoromethyl)-1,3,4-thiadiazol-2-yl)-9H-pyrimido[4,5-b]indol-4-yl)piperidine-1-carboxylate], for which the values for the IC50 in assay [1] and in assay [2] (168 h) were less than 100 nM and 100 to 1000 nM, respectively.

For the compound `C[C@H]1CN(c2ncnc3c2c2ccc(S(=O)(=O)NC4(C#N)CC4)cc2n3-c2nnc(C(F)F)s2)CCN1C(=O)N(C)C` [Example 37, (S)-4-(7-(N-(1-Cyanocyclopropyl)sulfamoyl)-9-(5-(difluoromethyl)-1,3,4-thiadiazol-2-yl)-9H-pyrimido[4,5-b]indol-4-yl)-N,N,2-trimethylpiperazine-1-carboxamide], the IC50 in assay [1] and in assay [2] (168 h) was less than 100 nM throughout.

As for `CN1CCC(C(=O)N2CCN(c3ncnc4c3c3ccc(S(=O)(=O)NC5(C#N)CC5)cc3n4-c3nnc(C(F)F)s3)CC2)C1` (stereo not shown) [Example 67, N-(1-Cyanocyclopropyl)-9-(5-(difluoromethyl)-1,3,4-thiadiazol-2-yl)-4-(4-(1-methylpyrrolidine-3-carbonyl)piperazin-1-yl)-9H-pyrimido[4,5-b]indole-7-sulfonamide], the IC50 in assay [1] is less than 100 nM; in assay [2] (168 h), 100 to 1000 nM.

Turning to `C[C@H]1CC(c2ncnc3c2c2ccc(S(=O)(=O)NC4(C#N)CC4)cc2n3-c2nnc(C(F)F)s2)CCN1` (stereo partly drawn) [Example 150, N-(1-Cyanocyclopropyl)-9-(5-(difluoromethyl)-1,3,4-thiadiazol-2-yl)-4-((2S)-2-methylpiperidin-4-yl)-9H-pyrimido[4,5-b]indole-7-sulfonamide], the results for the IC50 in assay [1] and in assay [2] (168 h) were less than 100 nM and 100 to 1000 nM, respectively.

For the compound `CC(C)CN1CCN(c2ncnc3c2c2ccc(S(=O)(=O)NC4(C#N)CC4)cc2n3-c2nnc(C(F)F)s2)CC1=O` [Example 158, N-(1-cyanocyclopropyl)-9-(5-(difluoromethyl)-1,3,4-thiadiazol-2-yl)-4-(4-isobutyl-3-oxopiperazin-1-yl)-9H-pyrimido[4,5-b]indole-7-sulfonamide], the IC50 in assay [1] and in assay [2] (168 h) was less than 100 nM each time.
